Measured values as given in PubChem BioAssay (NCI).
Values joined by “and” are separate entries in the source; they are usually repeats but may differ in a detail not shown here. Identical values can stand only once.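 Grown in 96-well plates, cells were treated for 48 hours with each compound at five concentrations. Insufficient inhibition: endpoint recorded as highest concentration tested. Here, GI50 denotes the concentration required for 50% inhibition of growth. At the TGI there is no net growth.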

Columns and labels:
Assay in all cases: growth of human tumour cells (NCI), 48 h
UO-31 renal = test system: UO-31 renal
MCF7 breast = test system: MCF7 breast
BT-549 breast = test system: BT-549 breast
HOP-62 NSCLC = test system: HOP-62 NSCLC
SNB-75 CNS = test system: SNB-75 CNS
HL-60(TB) leukemia = test system: HL-60(TB) leukemia
HCC-2998 colon = test system: HCC-2998 colon
SNB-19 CNS = test system: SNB-19 CNS
MDA-MB-435 = test system: MDA-MB-435
K-562 leukemia = test system: K-562 leukemia

| SMILES | GI50 (UO-31 renal) | TGI (UO-31 renal) | GI50 (MCF7 breast) | TGI (MCF7 breast) | GI50 (BT-549 breast) | TGI (BT-549 breast) | GI50 (HOP-62 NSCLC) | TGI (HOP-62 NSCLC) | GI50 (SNB-75 CNS) | TGI (SNB-75 CNS) | GI50 (HL-60(TB) leukemia) | TGI (HL-60(TB) leukemia) | GI50 (HCC-2998 colon) | TGI (HCC-2998 colon) | GI50 (SNB-19 CNS) | TGI (SNB-19 CNS) | GI50 (MDA-MB-435) | TGI (MDA-MB-435) | GI50 (K-562 leukemia) | TGI (K-562 leukemia) |
| --- | --- | --- | --- | --- | --- | --- | --- | --- | --- | --- | --- | --- | --- | --- | --- | --- | --- | --- | --- | --- |
| N#Cc1nc(-c2ccccc2)oc1S(=O)(=O)N1CCOCC1 | 1.51 µM | 2.89 µM | 2.74 µM | 13.1 µM | 6.67 µM | 19.6 µM | 34.7 µM | > 100 µM | 11.2 µM | 23.7 µM | 2.08 µM | 4.79 µM | 17.3 µM | 33.7 µM | 28 µM | > 100 µM | 4.03 µM | 15.1 µM | 2.03 µM | > 100 µM |
| O=C(/C=C\c1ccnc2ccccc12)c1ccc([N+](=O)[O-])cc1 | 4.99 µM | > 50.7 µM | 1.64 µM | 3.54 µM | 11.2 µM | 27.4 µM | > 38.4 µM | > 80.1 µM | > 75.4 µM | > 100 µM | 5.89 µM | > 75.5 µM | 6.05 µM | 29.9 µM | 14.8 µM | > 68.3 µM | 2.24 µM | 6.55 µM | 2.47 µM | 18 µM |
| CC(C)(C)CC(C)(C)c1ccc(OCCOCCSC(=N)N)cc1 | 1.75 µM | 3.91 µM | 1.51 µM | 3.22 µM | 3.84 µM | 16 µM | 1.87 µM | 3.36 µM | 1.37 µM | 3.85 µM | 1.79 µM | 3.58 µM | 1.25 µM | 2.56 µM | 2.17 µM | 5.58 µM | 1.51 µM | 2.84 µM | 1.51 µM | 3.58 µM |
| CN(Cc1cnc2nc(N)nc(N)c2n1)c1ccc(C(=O)NC(CCC(=O)O)C(=O)O)cc1 (stereo unspecified) | 0.27 µM | > 100 µM | – | > 100 µM | 6.51 µM | > 100 µM | 0.394 µM | > 100 µM | > 100 µM | > 100 µM | 0.0742 µM | > 100 µM | 0.0992 µM | > 100 µM | – | > 100 µM | 0.0478 µM | > 100 µM | – | > 100 µM |
| C[Se]C(=O)CC1=C2C=C(F)C=CC2/C(=C\c2ccc(S(C)=O)cc2)C1C (stereo unspecified) | 0.036 µM | 0.179 µM | 0.152 µM | 10.4 µM | 0.0581 µM | 0.266 µM | < 0.01 µM | 0.331 µM | < 0.01 µM | < 0.036 µM | 0.416 µM | 2.41 µM | 1.63 µM | 6.79 µM | 0.223 µM | 0.767 µM | < 0.0117 µM | 0.362 µM | 1.36 µM | > 100 µM |
| O=C(NNS(=O)(=O)c1cc(C(F)(F)F)cc(C(F)(F)F)c1)c1cnn(-c2ccc(Cl)cc2)c1C(F)(F)F | 15.8 µM | 31.7 µM | 21.5 µM | 58.9 µM | 14.5 µM | 28 µM | 18.2 µM | 34.3 µM | 24.4 µM | 75.3 µM | 20.7 µM | 45.6 µM | 16.4 µM | 31 µM | 20.2 µM | 49.7 µM | 17 µM | 33.2 µM | 23.1 µM | 65.7 µM |
| O=c1[nH]c(-c2ccc(C(F)(F)F)cc2)nc2c1CSCC2 | 5.43 µM | > 67.4 µM | > 100 µM | > 100 µM | > 94.3 µM | > 100 µM | 17.5 µM | 51.2 µM | 21.2 µM | 56.2 µM | > 100 µM | > 100 µM | > 81.2 µM | > 100 µM | 47.3 µM | > 100 µM | > 100 µM | > 100 µM | > 100 µM | > 100 µM |
| COc1ccc(C(O)c2cc3c(N)c(C(=O)Nc4cccc(Br)c4)sc3nc2C)cc1 (stereo unspecified) | 0.271 µM | > 31.3 µM | 0.125 µM | > 58.4 µM | 0.17 µM | > 23.2 µM | 0.207 µM | > 42.2 µM | 0.0693 µM | – | 0.085 µM | 0.242 µM | 0.121 µM | 15.5 µM | 0.159 µM | > 100 µM | 0.0202 µM | 0.05 µM | 0.107 µM | > 100 µM |
| Oc1ccccc1-n1c(-c2ccccc2)ccc1-c1ccccc1 | 2.17 µM | 10.6 µM | 5.08 µM | 16.5 µM | 13.4 µM | 89.5 µM | 11.3 µM | 24.2 µM | 4.46 µM | 21.5 µM | 5.2 µM | > 100 µM | 11.2 µM | 29.2 µM | 12.7 µM | 34.3 µM | 2.81 µM | 20.9 µM | 5.17 µM | 64.3 µM |
| CCSC1=CC(=O)c2ccccc2C1=O | 1.28 µM | 4.06 µM | 4.12 µM | 15.1 µM | 14.8 µM | 28.3 µM | 15.3 µM | 28.7 µM | 14.8 µM | 29.7 µM | 0.389 µM | 1.8 µM | 17 µM | 31.8 µM | 16.8 µM | 40.6 µM | 2.69 µM | 7.02 µM | 1.61 µM | 4.52 µM |
| CN(C)c1ccc(/C=C/c2ccnc3ccccc23)cc1 | 12.1 µM | > 100 µM | 0.922 µM | > 100 µM and 44.4 µM | 1.88 µM | > 100 µM and 14.6 µM | 3.34 µM | > 100 µM and 16.6 µM | 2.41 µM | > 100 µM and 11.9 µM | 2.86 µM | > 100 µM and 16.8 µM | 5.95 µM | > 100 µM and 33 µM | 6.56 µM | > 100 µM | 1.36 µM | 72.6 µM and 20.7 µM | 1.66 µM | > 100 µM |
| COc1ccc([C@H]2O[C@@H](CO)C[C@]2(O)c2ccc(OC)cc2)cc1 | > 100 µM | > 100 µM | > 100 µM | > 100 µM | > 100 µM | > 100 µM | > 100 µM | > 100 µM | > 100 µM | > 100 µM | 39.3 µM | > 100 µM | > 100 µM | > 100 µM | > 100 µM | > 100 µM | > 100 µM | > 100 µM | > 100 µM | > 100 µM |
